The values that follow are results of earlier work, collected in patent US10392388B2, “Meropenem derivatives and uses thereof” (Kala Pharmaceuticals, Inc., priority 2013, dated 2019).

Each structure is given as a SMILES string.

As for `C[C@@H](O)[C@H]1C(=O)N2C(C(=O)O)=C(S[C@@H]3CN[C@H](C(=O)N(C)C)C3)[C@H](C)[C@H]12` [Meropenem, meropenem], the water solubility is above 1000 µg/mL. In addition, in the data set with Pseudomonas aeruginosa, the MIC90 entry is on record as “about 8 μg/mL”.
